Measurements as given in patent US7090853B2, “Noscapine derivatives as adjuvant compositions and methods of use thereof” (Emory University, priority 1999, dated 2006).

System: HL-60 cells
Experiment: Apoptosis of HL-60 cells, DAPI staining of nuclear chromatin
Format: cell-based
Settings: for Apoptic Cell Percentage: 24 hours; for Initiation of apoptosis: DAPI staining
Protocol: Morphological changes in the nuclear chromatin of HL-60 cells undergoing apoptosis were detected by staining with 4′,6-diamidino-2-phenylindole (DAPI). In brief, 0.5×10^6 to 3×10^6 cells were fixed with 4% glutaraledebyde, 0.2% Triton x-100, in PBS and incubated at room temperature for 10 min., then centrifuged at 1000×g for 10 min., resuspended in 20 μl 0.1% DAPI ethanol. Following 15 min, incubation at room temperature, at 10 μl aliquot was placed on a glass slide, and 400 cells per slide were scored for the incidence of apoptotic chromatin changes with a fluorescence microscope.

[1] = 20 μM in DMSO, two trials, result for each trial shown

1,3-dihydro-4,5-dimethoxy-1-[1-(8-methoxy-2-methyl-6,7-methylenedioxy-1,2,3,4-tetrahydroisoquinoliyl)]isobenzofuran-BH3 [Compound 3]
Apoptic Cell Percentage [1]: 37.28% | Apoptic Cell Percentage (50 μM in DMSO): 39% | Initiation of apoptosis: initiate apoptosis

COc1ccc2c(c1OC)CO[C@@H]2[C@H]1c2c(cc3c(c2OC)OCO3)CCN1C [Compound 4, 1,3-dihydro-4,5-dimethoxy-1-[1-(8-methoxy-2-methyl-6,7-methylenedioxy-1,2,3,4-tetrahydroixo-quinolinyl)]isobenzofuran]
Apoptic Cell Percentage [1]: 48.32% | Apoptic Cell Percentage (50 μM in DMSO): 52% | Initiation of apoptosis: initiate apoptosis
